Experimental data reported in ChEMBL document CHEMBL6083293, “Novel Benzimidazole Derivatives as Potent Inhibitors of Microsomal Prostaglandin E2 Synthase 1 for the Potential Treatment of Inflammation, Pain, and Fever” (J Med Chem, 2024).
The source made the active and inactive calls. The calls are words filed in the database; no cut-off is given here.

Legend:
[1] = Clearance in guinea pig at 2 mg/kg, iv; format: ADME, organism-based, Cavia porcellus; settings: in vivo
[2] = Initial plasma concentration in guinea pig at 2 mg/kg, iv; format: ADME, organism-based, Cavia porcellus
[3] = Hepatotoxicity in guinea pig assessed as effect on AST level in plasma at 30 mg/kg, po; format: toxicity, organism-based, Cavia porcellus; settings: in vivo
Cavia porcellus [4] = assay: Anti-inflammatory activity against carrageenan-induced paw edema in guinea pig assessed as inhibition of edema formation at 30 mg/kg, po measured at 120 mins; format: functional, organism-based
[5] = AUC (0 to infinity) in guinea pig at 20 mg/kg, po; format: ADME, organism-based, Cavia porcellus; settings: in vivo
[6] = target: T1, Arachidonate 5-lipoxygenase-activating protein (Homo sapiens) (UniProt P20292); assay: Inhibition of FLAP in calcium ionophore A23187-stimulated human Neutrophil cells at 1 uM preincubated for 15 mins followed by calcium ionophore A23187 stimulation for 10 mins by RP-HPLC analysis; format: cell-based; settings: time 25.0 min
T1 sequence (whole entry): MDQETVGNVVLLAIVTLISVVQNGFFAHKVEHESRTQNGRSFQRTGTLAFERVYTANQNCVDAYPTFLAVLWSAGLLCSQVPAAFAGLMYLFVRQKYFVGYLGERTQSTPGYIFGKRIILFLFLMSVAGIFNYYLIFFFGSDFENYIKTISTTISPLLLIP

[7] = Metabolic stability in human liver microsome assessed as half life; format: ADME; settings: liver microsomes
[8] = Cmax in guinea pig at 20 mg/kg, po; format: ADME, organism-based, Cavia porcellus; settings: in vivo
[9] = Oral bioavailability in guinea pig at 20 mg/kg; format: ADME, organism-based, Cavia porcellus; settings: in vivo
[10] = Hepatotoxicity in guinea pig assessed as increase in ALP level in plasma at 30 mg/kg, po; format: toxicity, organism-based, Cavia porcellus; settings: in vivo
[11] = target: T2, Polyunsaturated fatty acid 5-lipoxygenase (Homo sapiens) (UniProt P09917); assay: Inhibition of human recombinant 5-LOX expressed in Escherichia coli BL21(DE3) at 1 uM using arachidonic acid as substrate preincubated with compound for 15 mins followed by substrate and CaCl2 addition measured after 10 mins by RP-HPLC analysis; settings: time 25.0 min
T2 sequence (whole entry): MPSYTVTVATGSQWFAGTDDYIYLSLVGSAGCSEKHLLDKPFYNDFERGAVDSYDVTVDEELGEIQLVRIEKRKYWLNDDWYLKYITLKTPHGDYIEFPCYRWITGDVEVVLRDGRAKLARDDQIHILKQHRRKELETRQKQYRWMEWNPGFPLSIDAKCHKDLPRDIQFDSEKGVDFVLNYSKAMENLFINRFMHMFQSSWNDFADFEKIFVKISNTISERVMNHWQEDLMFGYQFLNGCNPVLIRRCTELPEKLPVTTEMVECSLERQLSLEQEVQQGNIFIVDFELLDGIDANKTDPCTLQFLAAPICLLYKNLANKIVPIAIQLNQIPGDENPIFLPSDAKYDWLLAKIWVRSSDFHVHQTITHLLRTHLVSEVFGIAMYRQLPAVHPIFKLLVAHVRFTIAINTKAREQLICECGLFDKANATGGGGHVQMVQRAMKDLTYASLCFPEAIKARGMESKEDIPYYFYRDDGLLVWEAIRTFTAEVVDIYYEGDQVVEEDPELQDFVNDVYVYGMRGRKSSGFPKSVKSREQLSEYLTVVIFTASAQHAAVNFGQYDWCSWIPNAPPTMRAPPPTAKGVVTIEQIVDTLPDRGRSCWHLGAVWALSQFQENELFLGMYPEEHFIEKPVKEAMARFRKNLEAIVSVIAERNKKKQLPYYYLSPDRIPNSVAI

[12] = Metabolic stability in human liver microsome assessed as intrinsic clearance; format: ADME; settings: liver microsomes, read-out: CLH
[13] = Volume of distribution at steady state in guinea pig at 2 mg/kg, iv; format: ADME, organism-based, Cavia porcellus; settings: in vivo, read-out: Vdss
Cavia porcellus [14] = assay: Anti-hyperalgesic activity against carrageenan-induced guinea pig mechanical hyperalgesia model at 30 mg/kg, po; format: functional, organism-based
[15] = Toxicity in guinea pig assessed as increase in sinusoidal capillary diameter at 30 mg/kg, po; format: organism-based, Cavia porcellus; settings: in vivo
[16] = Half life in guinea pig at 2 mg/kg, iv; format: ADME, organism-based, Cavia porcellus; settings: in vivo
[17] = Toxicity in guinea pig assessed as increase in number of vacuolated hepatocytes at 30 mg/kg, po; format: organism-based, Cavia porcellus; settings: in vivo
Cavia porcellus [18] = assay: Anti-inflammatory activity against carrageenan-induced paw edema in guinea pig assessed as inhibition of edema formation at 30 mg/kg, po measured at 240 mins; format: functional; settings: 4 h
[19] = Metabolic stability in guinea pig liver microsome assessed as intrinsic clearance; format: ADME, Cavia porcellus; settings: liver microsomes, read-out: CLH
[20] = target: T3, Prostaglandin G/H synthase 2 (Homo sapiens) (UniProt P35354); assay: Inhibition of human recombinant COX-2 at 1 uM using arachidonic acid as substrate preincubated for 6 mins followed by substrate addition and measured after 10 mins by RP-HPLC analysis; settings: time 16.0 min
T3 sequence (whole entry): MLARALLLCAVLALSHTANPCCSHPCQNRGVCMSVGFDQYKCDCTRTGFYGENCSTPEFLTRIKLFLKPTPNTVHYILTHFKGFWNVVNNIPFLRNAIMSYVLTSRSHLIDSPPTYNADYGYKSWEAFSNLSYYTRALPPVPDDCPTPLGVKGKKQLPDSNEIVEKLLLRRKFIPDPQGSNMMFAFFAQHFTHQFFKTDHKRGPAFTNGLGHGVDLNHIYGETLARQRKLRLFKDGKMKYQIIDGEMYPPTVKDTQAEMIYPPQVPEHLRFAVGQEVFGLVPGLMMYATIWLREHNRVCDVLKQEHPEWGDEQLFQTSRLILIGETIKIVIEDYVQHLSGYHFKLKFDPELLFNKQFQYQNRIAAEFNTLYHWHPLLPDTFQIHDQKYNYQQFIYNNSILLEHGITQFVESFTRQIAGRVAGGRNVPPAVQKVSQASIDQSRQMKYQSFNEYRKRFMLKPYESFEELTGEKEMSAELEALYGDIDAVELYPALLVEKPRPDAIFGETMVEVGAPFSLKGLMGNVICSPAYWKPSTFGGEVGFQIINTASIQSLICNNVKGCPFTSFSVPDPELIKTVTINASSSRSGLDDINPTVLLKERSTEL

Cavia porcellus [21] = assay: Anti-pyretic activity against LPS-induced guinea pig pyresis model assessed as increase in rectal temperature at 30 mg/kg, po measured at 180 to 240 mins; format: functional, organism-based; settings: time 180-240 min
[22] = Metabolic stability in guinea pig liver microsome assessed as half life; format: ADME, Cavia porcellus; settings: liver microsomes
[23] = target: T4, Prostaglandin G/H synthase 1 (Ovis aries) (UniProt P05979); assay: Inhibition of ovine COX-1 at 1 uM using arachidonic acid as substrate preincubated for 6 mins followed by substrate addition and measured after 10 mins by RP-HPLC analysis; settings: time 16.0 min
T4 sequence (whole entry): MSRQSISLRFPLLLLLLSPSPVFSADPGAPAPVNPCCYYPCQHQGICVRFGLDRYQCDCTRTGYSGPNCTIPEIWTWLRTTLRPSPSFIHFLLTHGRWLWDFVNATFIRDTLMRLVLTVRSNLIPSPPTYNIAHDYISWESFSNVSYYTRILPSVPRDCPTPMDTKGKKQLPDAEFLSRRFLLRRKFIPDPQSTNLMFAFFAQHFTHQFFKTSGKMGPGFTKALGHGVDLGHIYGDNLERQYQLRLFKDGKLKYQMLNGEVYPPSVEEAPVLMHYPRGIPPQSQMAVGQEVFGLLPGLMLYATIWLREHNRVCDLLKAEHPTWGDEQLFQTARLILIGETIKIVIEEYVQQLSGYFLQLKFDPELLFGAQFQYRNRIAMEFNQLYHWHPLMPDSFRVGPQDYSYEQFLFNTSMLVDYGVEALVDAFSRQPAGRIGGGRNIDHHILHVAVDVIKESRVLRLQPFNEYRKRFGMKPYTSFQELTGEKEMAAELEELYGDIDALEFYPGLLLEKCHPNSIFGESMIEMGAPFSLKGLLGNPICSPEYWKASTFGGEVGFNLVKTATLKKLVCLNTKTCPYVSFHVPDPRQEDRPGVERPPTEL

[24] = Cytotoxicity against human MDM cells assessed as LDH release at 3 uM measured after 3 hrs; format: toxicity, cell-based
[25] = Half life in guinea pig at 20 mg/kg, po; format: ADME, organism-based, Cavia porcellus; settings: in vivo
[26] = Hepatotoxicity in guinea pig assessed as effect on ALT level in plasma at 30 mg/kg, po; format: toxicity, organism-based, Cavia porcellus; settings: in vivo
[27] = Cytotoxicity against human MDM cells assessed as metabolic activity at 3 uM measured after 48 hrs by MTT assay; format: toxicity, cell-based
[28] = Toxicity in guinea pig assessed as increase in number of vacuolated hepatocytes at 10 mg/kg, po; format: organism-based, Cavia porcellus; settings: in vivo
[29] = Hepatotoxicity in guinea pig assessed as increase in ALP level in plasma at 10 mg/kg, po; format: toxicity, organism-based, Cavia porcellus; settings: in vivo
[30] = target: T5, Prostaglandin E synthase (Homo sapiens) (UniProt O14684); assay: Inhibition of mPGES-1 in human M1-like MDM cells assessed as reduction in TXB2 formation at 10 uM; format: cell-based
T5 sequence (whole entry): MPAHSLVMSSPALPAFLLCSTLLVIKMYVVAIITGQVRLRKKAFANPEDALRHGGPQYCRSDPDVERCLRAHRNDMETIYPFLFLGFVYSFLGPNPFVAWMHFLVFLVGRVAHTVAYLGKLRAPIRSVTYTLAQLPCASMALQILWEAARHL

Cavia porcellus [31] = assay: Anti-hyperalgesic activity against carrageenan-induced guinea pig mechanical hyperalgesia model at 10 mg/kg, po; format: functional, organism-based
[32] = target: T5, Prostaglandin E synthase (Homo sapiens); assay: Inhibition of mPGES-1 in human M1-like MDM cells assessed as reduction in PGE2 formation at 10 uM; format: cell-based
Cavia porcellus [33] = assay: Anti-inflammatory activity against carrageenan-induced paw edema in guinea pig assessed as reduction in paw swelling at 10 mg/kg, po measured at 240 mins; format: functional, organism-based
[34] = Toxicity in guinea pig assessed as increase in sinusoidal capillary diameter at 10 mg/kg, po; format: organism-based, Cavia porcellus; settings: in vivo

Row | SMILES | clearance [1] [mL/min/kg] | C0 [2] [ng/mL] | AUC(0-inf) [5] [ng·h/mL] | half-life [7] [min] | Cmax [8] [ng/mL] | bioavailability [9] [%] | microsomal CLint [12] [µL/min/mg] | Vd [13] [L/kg] | half-life [16] [min] | microsomal CLint [19] [µL/min/mg] | half-life [22] [min] | half-life [25] [min] | also measured
1 | O=C(Nc1ccc(-c2nc3cc(C(F)(F)F)ccc3[nH]2)cc1)c1cc(CNC(=O)C2(C(F)(F)F)CC2)ccc1Cl | 14.9 | 878 | 13800 | 30.7 | 1370 | 61 | 45.2 | 4.1 | 234 | < 7.5 | 185 | 288 | Activity [3]: Non-toxic; Activity (Cavia porcellus [4]): Active; inhibition [6]: Active; Activity [10]: Non-toxic; inhibition [11]: Active; Activity (Cavia porcellus [14]): Active; Activity [15]: Mild_effect; Activity [17]: Mild_effect; inhibition in vivo at 30 mg/kg (Cavia porcellus [18]): 60%; inhibition [20]: Active; Activity (Cavia porcellus [21]): Active; inhibition [23]: Active; Activity [24]: Non-toxic; Activity [26]: Non-toxic; Activity [27]: Non-toxic
2 | CC(C)(C(=O)NCc1ccc(Cl)c(C(=O)Nc2ccc(-c3nc4cc(C(F)(F)F)ccc4[nH]3)cc2)c1)C(F)(F)F |  |  |  | 6.8 |  |  | 203 |  |  | 13.9 | 103 |  | 
3 | CC(C)(C(=O)NCc1ccc(Cl)c(C(=O)Nc2ccc(Cc3nc4cc(C(F)(F)F)ccc4[nH]3)cc2)c1)C(F)(F)F |  |  |  | 51.2 |  |  | 27.4 |  |  | 28.2 | 49.3 |  | 
4 | COc1ccc2c(c1)c(CC(=O)O)c(C)n2C(=O)c1ccc(Cl)cc1 [INDOMETHACIN] |  |  |  |  |  |  |  |  |  |  |  |  | Activity [28]: Non-toxic; Activity [29]: Toxic; inhibition [30]: inactive; Activity (Cavia porcellus [31]): Active; inhibition [32]: inactive; Activity (Cavia porcellus [33]): Active; Activity [34]: Non-toxic
5 | O=C(Nc1ccc(-c2nc3cc(C(F)(F)F)ccc3[nH]2)cc1)c1cc(CNC(=O)C2(C(F)(F)F)CCC2)ccc1Cl | 87.7 | 733 | 620 | 4.4 | 49 | 16 | 315 | 10 | 336 | 163 | 8.5 | 342 | 
6 | CC(C)(C)C(=O)NCc1ccc(Cl)c(C(=O)Nc2ccc(-c3nc4cc(C(F)(F)F)ccc4[nH]3)cc2)c1 |  |  |  | 5.6 |  |  | 247 |  |  | 302 | 4.6 |  | 
